Test results taken from PMC6669513, “Identification of A Novel Antibacterial Peptide from Atlantic Mackerel belonging to the GAPDH-Related Antimicrobial Family and Its In Vitro Digestibility” (Marine Drugs, 2019).
No end group written: not given here.

Experiments:
[1] = system: Pseudomonas aeruginosa ATCC 27853; conditions: ATCC 27853, 48 h
[2] = system: Lactobacillus acidophilus ATCC 4356; assay: MIC, broth microdilution; format: cell-based; conditions: two-fold dilution series from 1.050 mM stock in Mueller-Hinton Broth or Brucella Broth; 5.10^5 CFU/mL; visible growth after 24 or 48 h
[3] = format: in vitro ADME
Procedure: The dynamic GI TIM-1 Model (TNO Nutrition and Food Research Institute, Zeist, the Netherlands) described previously by was used for evaluation of peptide digestibility. Gastric pH began at 4.5 and decreased gradually to 3.6 after 20 min, 2.7 after 40 min and 2.0 after 60 min of digestion by injecting 0.5 mol/L HCl, finally reaching 1.7 after 120 min. The pH of the duodenal, jejunal and ileal compartments was adjusted to 6, 6.8 and 7.2, respectively, by injecting 0.5 mol/L sodium bicarbonate solution. Gastric secretions consisted of pepsin (0.163 mg/mL) from porcine gastric mucosa (EC 3.4.23.1; Sigma-Aldrich Canada Ltd., Oakville, ON, Canada) and lipase (0.133 mg/mL) from Rhizopus oryzae (EC 3.1.1.3; Amano Pharmaceuticals, Nagoya, Japan), both in an electrolyte solution (NaCl, 6.2 g/L; KCl, 2.2 g/L; CaCl2, 0.3 g/L; NaHCO3, 1.5 g/L) delivered at a flow rate of 0.25 mL/min. […]
To check the digestibility of the synthetic GAPDH-related derived peptide, TIM samples were separated by SPE-C18 before analysis by FPLC with ionic exchange column (IEX). […] The absorbance was recorded at 214 nm and collected fractions were screened for sequence peptides by LC-MS/MS analysis as described above.

Bacillus megaterium B301 = conditions: Bacillus B301, 48 h
[4] = system: Vibrio parahaemolyticus ALN-0312; conditions: 48 h
[5] = system: Escherichia coli ATCC 25922; conditions: ATCC 25922, 48 h
[6] = system: Listeria ivanovii ATCC 19119; conditions: ATCC 19119, 48 h
[7] = system: Listeria monocytogenes ATCC 15313; conditions: ATCC 15313, 48 h
[8] = system: Bacteroides thetaiotaomicron ATCC 29741; conditions: two-fold dilution series from 1.050 mM stock in Mueller-Hinton Broth or Brucella Broth; 5.10^5 CFU/mL; visible growth after 24 or 48 h
[9] = system: Blautia coccoides ATCC 29236; conditions: ATCC 29236, 48 h
[10] = system: Enterococcus faecalis ATCC 29212; conditions: ATCC 29212, 48 h
Enterococcus faecium L1 = conditions: L1, 48 h
Micrococcus luteus 272 = assay: MIC, broth microdilution; format: cell-based; conditions: two-fold dilution series from 1.050 mM stock in Mueller-Hinton Broth or Brucella Broth; 5.10^5 CFU/mL; visible growth after 24 or 48 h
[11] = system: Bifidobacterium infantis ATCC 15697; conditions: ATCC 15697, 48 h
[12] = system: Staphylococcus aureus ATCC 25923; conditions: ATCC 25923, 48 h
gastric pepsin = conditions: upper gastrointestinal conditions; cited from earlier work
Text: Food additives such as AMPs must be safe for the human microbiota and the environment. Consequently, knowing the digestibility of AMPs in the human gastrointestinal tract is critical and should not be underestimated. The TIM-1 model used to evaluate the stability of the synthetic peptide simulated the major GI stress conditions, such as gastric acid environment, excretion of proteolytic enzymes and bile salts, and peristaltic movements.

KVEIVAINDPFIDL [AMGAP]
MIC [1]: >1050 µM
MIC [2]: 263 µM
Proportion of intact synthetic peptide in the effluent fraction [3]: 2%
Sensitivity to the digestive process ([3]; pH 2.7): sensitive
MIC (Bacillus megaterium B301): >1050 µM
MIC [4]: >1050 µM
MIC [5]: >1050 µM
MIC [6]: 131 µM
MIC [7]: 131 µM
MIC [8]: 263 µM
MIC [9]: >1050 µM
MIC [10]: >1050 µM
MIC (Enterococcus faecium L1): >1050 µM
MIC (Micrococcus luteus 272): 263 µM
MIC [11]: >1050 µM
MIC [12]: >1050 µM

pediocin PA-1: pediocin PA-1, compared for stability under upper gastrointestinal conditions (KYYGNGVTCGKHSCSVDWGKATTCIINNGAMAWATGGHQGNHKC; ends and bridges not checked; cysteine pairing not given here; UniProt P29430 19-62, looked up)
Stability with gastric pepsin combined with low pH (gastric pepsin): reduced its stability
